Laboratory results as given in patent US20140039044A1, “Hydroxylated Polymethoxyflavone Compositions” (WLLGEN, INC., priority 2006, published 2014).
Where two headings read alike, the source gives them in different places.

How the values were obtained:
Assay type in all cases: cell-based, human
HL-60 cells = test: Cell survival assay (antiproliferative IC50); conditions: Homo sapiens
AGS cells [1] = test: Cell survival assay (antiproliferative IC50); conditions: Homo sapiens, read-out: Antiproliferative IC50
COLO205 cells [2] = test: Cell survival assay (antiproliferative IC50); conditions: Homo sapiens
AGS cells [3] = test: Cell cycle distribution by flow cytometry; conditions: 24 h; for Cell Cycle Distribution G0/G1 / Cell Cycle Distribution G2/M / Cell Cycle Distribution S: Table 11
Summary of the method: (§1)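 Human cancer cells (2×10^5 per dish) exposed 24 h to compound at 5–100 μM, or DMSO. Cells ethanol-fixed at −20° C overnight, RNase/Triton-treated at 37° C for 30 min, then stained with propidium iodide. DNA content read by FACScan flow cytometry to give phase distribution.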

COLO205 cells [4] = test: Cell cycle distribution by flow cytometry; conditions: 24 h; for Cell Cycle Distribution G0/G1 / Cell Cycle Distribution G2/M / Cell Cycle Distribution S: COLO205 cells, Table 12
Summary of the method: as §1

HT-29 cells = test: Cell survival assay (antiproliferative IC50); conditions: Homo sapiens
Summary of the method: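 HT-29 cells in RPMI 1640 with 10% heat-inactivated FBS, 2×10^5 per well, treated next day with compounds from DMSO stocks (0.05% DMSO final) for 24 h, or 1, 3 or 6 days. Growth read by hemocytometer count and CyQUANT total nucleic acid content; IC50 antiproliferative.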

[5] = HL-60 cells, read-out: Antiproliferative IC50
[6] = COLO 205, COLO205 cells, read-out: Antiproliferative IC50

| Compound | Cell Cycle Distribution G0/G1 (AGS cells [3]; 5 μM) | Cell Cycle Distribution G2/M (AGS cells [3]; 5 μM) | Cell Cycle Distribution S (AGS cells [3]; 5 μM) | Cell Cycle Distribution G0/G1 (AGS cells [3]; 10 μM) | Cell Cycle Distribution G2/M (AGS cells [3]; 10 μM) | Cell Cycle Distribution S (AGS cells [3]; 10 μM) | Cell Cycle Distribution G0/G1 (AGS cells [3]; 25 μM) | Cell Cycle Distribution G2/M (AGS cells [3]; 25 μM) | Cell Cycle Distribution S (AGS cells [3]; 25 μM) | Cell Cycle Distribution G0/G1 (AGS cells [3]; 50 μM) | Cell Cycle Distribution G2/M (AGS cells [3]; 50 μM) | Cell Cycle Distribution S (AGS cells [3]; 50 μM) | Cell Cycle Distribution G0/G1 (AGS cells [3]; 100 μM) | Cell Cycle Distribution G2/M (AGS cells [3]; 100 μM) | Cell Cycle Distribution S (AGS cells [3]; 100 μM) | Cell Cycle Distribution G0/G1 (COLO205 cells [4]; 5 μM) | Cell Cycle Distribution G2/M (COLO205 cells [4]; 5 μM) | Cell Cycle Distribution S (COLO205 cells [4]; 5 μM) | Cell Cycle Distribution G0/G1 (COLO205 cells [4]; 10 μM) | Cell Cycle Distribution G2/M (COLO205 cells [4]; 10 μM) | other results |
| --- | --- | --- | --- | --- | --- | --- | --- | --- | --- | --- | --- | --- | --- | --- | --- | --- | --- | --- | --- | --- | --- |
| COc1c(OC)c(OC)c2c(=O)cc(-c3ccc(O)c(O)c3)oc2c1OC [H, 3′,4′-dihydroxy-5,6,7,8-tetramethoxyflavone] | 62.78 ± 2.93 | 16.57 ± 1.93 | 20.66 ± 1.00 | 61.72 ± 2.76 | 17.39 ± 2.76 | 20.89 ± 0.00 | 63.91 ± 0.92 | 16.82 ± 1.04 | 19.28 ± 0.12 | 63.96 ± 1.65 | 16.74 ± 2.15 | 19.31 ± 0.51 | 68.04 ± 1.34 | 22.69 ± 0.13 | 9.27 ± 1.46 | 67.26 ± 0.45 | 8.17 ± 0.60 | 24.58 ± 0.15 | 66.67 ± 0.16 | 6.18 ± 0.63 | IC50 (HL-60 cells; HL-60, read-out: Antiproliferative IC50): 71.2 ± 1.93 µM; IC50 (AGS cells [1]; AGS): 69.3 ± 4.23 µM; IC50 (COLO205 cells [2]; COLO 205, read-out: Antiproliferative IC50): 90.1 ± 11.9 µM; Cell Cycle Distribution S (COLO205 cells [4]; 10 μM): 27.16 ± 0.46; Cell Cycle Distribution G0/G1 (COLO205 cells [4]; 25 μM): 66.99 ± 1.32; Cell Cycle Distribution G2/M (COLO205 cells [4]; 25 μM): 6.89 ± 0.21; Cell Cycle Distribution S (COLO205 cells [4]; 25 μM): 26.13 ± 1.11; Cell Cycle Distribution G0/G1 (COLO205 cells [4]; 50 μM): 64.49 ± 1.00; Cell Cycle Distribution G2/M (COLO205 cells [4]; 50 μM): 8.94 ± 1.12; Cell Cycle Distribution S (COLO205 cells [4]; 50 μM): 26.57 ± 2.12; Cell Cycle Distribution G0/G1 (COLO205 cells [4]; 100 μM): 66.50 ± 0.06; Cell Cycle Distribution G2/M (COLO205 cells [4]; 100 μM): 6.98 ± 0.02; Cell Cycle Distribution S (COLO205 cells [4]; 100 μM): 26.53 ± 0.08; IC50 (HT-29 cells): 74.72 ± 0.2 µM |
| COc1ccc(-c2oc3c(OC)c(OC)c(OC)c(O)c3c(=O)c2OC)cc1OC [Compound C, 5-hydroxy-3,6,7,8,3′,4′-hexamethoxyflavone] | 45.5 ± 1.06 | 9.9 ± 0.07 | 45.2 ± 0.35 | 29.6 ± 1.77 | 22.0 ± 0.78 | 26.1 ± 0.85 | 20.6 ± 0.42 | 47.3 ± 1.13 | 31.3 ± 0.49 | 18.2 ± 0.42 | 32.7 ± 0.57 | 50.1 ± 1.20 | 17.0 ± 0.07 | 32.4 ± 0.78 | 52.0 ± 0.85 | 63.55 ± 0.99 | 6.16 ± 0.37 | 30.29 ± 0.61 | 75.57 ± 0.83 | 6.37 ± 1.50 | IC50 (HL-60 cells; [5]): 8.45 ± 1.6 µM; IC50 (AGS cells [1]; AGS cells): 17 ± 0.21 µM; IC50 (COLO205 cells [2]; [6]): 67 ± 1.4 µM; Cell cycle arrest, in words (AGS cells [3]; 5-100 μM): decrease in G1 arrest accompanied by an increase in G2/M phase cell population; Cell Cycle Distribution S (COLO205 cells [4]; 10 μM): 18.07 ± 0.67; Cell Cycle Distribution G0/G1 (COLO205 cells [4]; 25 μM): 74.27 ± 0.83; Cell Cycle Distribution G2/M (COLO205 cells [4]; 25 μM): 0.43 ± 0.20; Cell Cycle Distribution S (COLO205 cells [4]; 25 μM): 25.30 ± 0.63; Cell Cycle Distribution G0/G1 (COLO205 cells [4]; 50 μM): 58.30 ± 0.57; Cell Cycle Distribution G2/M (COLO205 cells [4]; 50 μM): 16.70 ± 0.59; Cell Cycle Distribution S (COLO205 cells [4]; 50 μM): 25.00 ± 1.16; Cell Cycle Distribution G0/G1 (COLO205 cells [4]; 100 μM): 51.84 ± 0.31; Cell Cycle Distribution G2/M (COLO205 cells [4]; 100 μM): 19.04 ± 0.39; Cell Cycle Distribution S (COLO205 cells [4]; 100 μM): 29.13 ± 0.70; Cell cycle arrest, in words (COLO205 cells [4]; COLO 205 cells, 5-100 μM): decrease in G1 arrest accompanied by an increase in G2/M phase cell population; IC50 (HT-29 cells): 77.4 ± 1.82 µM |
| COc1cc(-c2cc(=O)c3c(O)c(OC)c(OC)c(OC)c3o2)cc(OC)c1OC [E, 5-hydroxy-6,7,8,3′,4′,5′-hexamethoxyflavone] | 55.70 ± 0.14 | 15.88 ± 0.89 | 28.42 ± 0.75 | 56.96 ± 3.14 | 16.00 ± 0.55 | 27.05 ± 2.60 | 56.32 ± 2.62 | 14.40 ± 2.38 | 29.25 ± 0.18 | 54.53 ± 0.30 | 15.69 ± 1.41 | 29.79 ± 1.10 | 55.68 ± 0.46 | 13.51 ± 0.17 | 30.82 ± 0.29 | 67.66 ± 0.19 | 8.75 ± 0.17 | 23.60 ± 0.03 | 67.48 ± 0.59 | 8.29 ± 0.48 | IC50 (HL-60 cells; [5]): > 100 µM; IC50 (AGS cells [1]; AGS cells): > 100 µM; IC50 (COLO205 cells [2]; [6]): > 100 µM; Cell Cycle Distribution S (COLO205 cells [4]; 10 μM): 24.24 ± 0.11; Cell Cycle Distribution G0/G1 (COLO205 cells [4]; 25 μM): 67.40 ± 0.49; Cell Cycle Distribution G2/M (COLO205 cells [4]; 25 μM): 7.59 ± 1.18; Cell Cycle Distribution S (COLO205 cells [4]; 25 μM): 25.02 ± 0.70; Cell Cycle Distribution G0/G1 (COLO205 cells [4]; 50 μM): 69.49 ± 2.62; Cell Cycle Distribution G2/M (COLO205 cells [4]; 50 μM): 6.59 ± 0.82; Cell Cycle Distribution S (COLO205 cells [4]; 50 μM): 23.93 ± 1.80; Cell Cycle Distribution G0/G1 (COLO205 cells [4]; 100 μM): 69.99 ± 0.89; Cell Cycle Distribution G2/M (COLO205 cells [4]; 100 μM): 5.52 ± 0.90; Cell Cycle Distribution S (COLO205 cells [4]; 100 μM): 24.50 ± 0.00; IC50 (HT-29 cells): > 100 µM |
| COc1cc(-c2cc(=O)c3c(OC)c(OC)c(OC)c(OC)c3o2)cc(OC)c1OC [F, 5,6,7,8,3′,4′,5′-heptamethoxyflavone, reference compound] | 58.22 ± 1.10 | 14.76 ± 0.94 | 27.02 ± 0.17 | 62.41 ± 6.13 | 14.56 ± 0.58 | 23.04 ± 5.55 | 62.24 ± 0.71 | 15.34 ± 1.30 | 22.57 ± 2.21 | 65.87 ± 0.93 | 13.05 ± 0.98 | 21.08 ± 1.90 | 64.22 ± 5.56 | 13.92 ± 1.06 | 21.86 ± 4.50 | 68.30 ± 1.36 | 8.71 ± 0.55 | 23.00 ± 0.80 | 71.96 ± 0.24 | 8.38 ± 0.43 | IC50 (HL-60 cells; [5]): 47 ± 4 µM; IC50 (AGS cells [1]; AGS cells): > 100 µM; IC50 (COLO205 cells [2]; [6]): 92.6 ± 15 µM; Cell Cycle Distribution S (COLO205 cells [4]; 10 μM): 19.67 ± 0.67; Cell Cycle Distribution G0/G1 (COLO205 cells [4]; 25 μM): 72.22 ± 0.54; Cell Cycle Distribution G2/M (COLO205 cells [4]; 25 μM): 9.80 ± 0.20; Cell Cycle Distribution S (COLO205 cells [4]; 25 μM): 17.98 ± 0.74; Cell Cycle Distribution G0/G1 (COLO205 cells [4]; 50 μM): 76.39 ± 0.85; Cell Cycle Distribution G2/M (COLO205 cells [4]; 50 μM): 8.02 ± 0.50; Cell Cycle Distribution S (COLO205 cells [4]; 50 μM): 15.60 ± 1.35; Cell Cycle Distribution G0/G1 (COLO205 cells [4]; 100 μM): 78.64 ± 0.34; Cell Cycle Distribution G2/M (COLO205 cells [4]; 100 μM): 8.65 ± 0.19; Cell Cycle Distribution S (COLO205 cells [4]; 100 μM): 12.71 ± 0.52; IC50 (HT-29 cells): 96.4 ± 8.66 µM |
